Measured values taken from patent US10973832B2, “Muscarinic M1 receptor agonists” (Heptares Therapeutics Limited, priority 2011, dated 2021).

Tests used:
Type in all cases: cell-based
[1] = target: T1, human muscarinic M2 receptor (Homo sapiens, UniProt P08172); assay: Phospho-ERK1/2 assay, muscarinic M2; conditions: for EC50: CHO cells expressing human M2, phospho-ERK1/2 Alphascreen, read-out: pEC50 M2 (converted); for Emax: CHO, read-out: % Emax cf. ACh (M2)
T1 sequence (P08172 1-466): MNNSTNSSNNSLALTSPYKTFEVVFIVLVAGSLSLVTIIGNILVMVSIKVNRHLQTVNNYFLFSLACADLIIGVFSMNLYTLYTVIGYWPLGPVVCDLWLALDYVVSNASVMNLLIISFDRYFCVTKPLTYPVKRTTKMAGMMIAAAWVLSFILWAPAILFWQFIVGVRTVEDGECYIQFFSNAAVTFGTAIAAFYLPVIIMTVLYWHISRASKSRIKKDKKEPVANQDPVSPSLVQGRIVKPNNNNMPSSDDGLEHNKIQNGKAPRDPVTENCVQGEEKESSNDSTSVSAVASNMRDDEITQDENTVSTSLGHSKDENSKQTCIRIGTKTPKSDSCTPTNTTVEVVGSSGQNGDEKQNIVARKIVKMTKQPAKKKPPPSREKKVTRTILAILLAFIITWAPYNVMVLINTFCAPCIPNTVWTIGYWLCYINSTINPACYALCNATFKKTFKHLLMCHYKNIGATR
Method: (§1) Functional assays were performed using the Alphascreen Surefire phospho-ERK1/2 assay (Crouch & Osmond, Comb. Chem. High Throughput Screen, 2008). ERK1/2 phosphorylation is a downstream consequence of both Gq/11 and Gi/o protein coupled receptor activation, making it highly suitable for the assessment of M1, M3 (Gq/11 coupled) and M2, M4 receptors (Gi/o coupled), rather than using different assay formats for different receptor subtypes. CHO cells stably expressing the human muscarinic M1, M2, M3 or M4 receptor were plated (25K/well) onto 96-well tissue culture plates in MEM-alpha+10% dialysed FBS. Once adhered, cells were serum-starved overnight. Agonist stimulation was performed by the addition of 5 μL agonist to the cells for 5 min (37° C.). Media was removed and 50 μL of lysis buffer added. After 15 min, a 4 μL sample was transferred to 384-well plate and 7 μL of detection mixture added. Plates were incubated for 2 h with gentle agitation in the dark and then read on a PHERAstar plate reader.
(§2) pEC50 and Emax figures were calculated from the resulting data for each receptor subtype.

[2] = target: T2, human muscarinic M3 receptor (Homo sapiens, UniProt P20309); assay: Phospho-ERK1/2 assay, muscarinic M3; conditions: for EC50: CHO cells expressing human M3, phospho-ERK1/2 Alphascreen, read-out: pEC50 M3 (converted); for Emax: CHO, read-out: % Emax cf. ACh (M3)
T2 construct: expressed in transfected cells
Method: as §1, §2

[3] = target: T3, human muscarinic M1 receptor (Homo sapiens, UniProt P11229); assay: Phospho-ERK1/2 assay, muscarinic M1; conditions: for EC50: CHO cells expressing human M1, phospho-ERK1/2 Alphascreen, read-out: pEC50 M1 (converted); for Emax: CHO, read-out: % Emax cf. ACh (M1)
T3 sequence (P11229 1-460): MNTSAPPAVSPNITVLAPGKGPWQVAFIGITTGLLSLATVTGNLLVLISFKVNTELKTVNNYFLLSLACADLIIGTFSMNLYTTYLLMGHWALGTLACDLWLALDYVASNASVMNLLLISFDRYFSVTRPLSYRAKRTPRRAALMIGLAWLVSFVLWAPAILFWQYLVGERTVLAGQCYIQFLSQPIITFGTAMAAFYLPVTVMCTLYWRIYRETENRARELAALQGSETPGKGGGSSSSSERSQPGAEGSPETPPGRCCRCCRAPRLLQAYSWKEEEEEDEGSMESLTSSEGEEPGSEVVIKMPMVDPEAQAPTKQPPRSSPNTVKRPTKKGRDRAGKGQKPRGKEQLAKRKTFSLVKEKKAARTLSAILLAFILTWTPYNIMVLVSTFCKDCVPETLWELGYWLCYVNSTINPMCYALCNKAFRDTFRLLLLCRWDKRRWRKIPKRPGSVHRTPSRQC
Method: as §1, §2

[4] = target: T4, human muscarinic M4 receptor (Homo sapiens, UniProt P08173); assay: Phospho-ERK1/2 assay, muscarinic M4; conditions: for EC50: CHO cells expressing human M4, phospho-ERK1/2 Alphascreen, read-out: pEC50 M4 (converted); for Emax: CHO, read-out: % Emax cf. ACh (M4)
T4 construct: expressed in transfected cells
T4 sequence (P08173 1-479): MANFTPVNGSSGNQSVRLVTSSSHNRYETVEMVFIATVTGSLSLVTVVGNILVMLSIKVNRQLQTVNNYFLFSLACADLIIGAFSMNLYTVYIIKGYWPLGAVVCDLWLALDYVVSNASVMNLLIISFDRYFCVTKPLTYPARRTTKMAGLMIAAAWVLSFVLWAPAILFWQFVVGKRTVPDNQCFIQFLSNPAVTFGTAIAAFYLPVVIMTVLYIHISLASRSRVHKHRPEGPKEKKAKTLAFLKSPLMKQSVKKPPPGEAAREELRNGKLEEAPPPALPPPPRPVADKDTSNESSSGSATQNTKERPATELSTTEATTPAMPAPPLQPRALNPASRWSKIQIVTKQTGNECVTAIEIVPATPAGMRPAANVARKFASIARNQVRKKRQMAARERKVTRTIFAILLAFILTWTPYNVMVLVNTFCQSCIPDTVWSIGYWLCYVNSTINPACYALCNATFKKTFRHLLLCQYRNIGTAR
Method: as §1, §2

T2 sequence (P20309 whole entry): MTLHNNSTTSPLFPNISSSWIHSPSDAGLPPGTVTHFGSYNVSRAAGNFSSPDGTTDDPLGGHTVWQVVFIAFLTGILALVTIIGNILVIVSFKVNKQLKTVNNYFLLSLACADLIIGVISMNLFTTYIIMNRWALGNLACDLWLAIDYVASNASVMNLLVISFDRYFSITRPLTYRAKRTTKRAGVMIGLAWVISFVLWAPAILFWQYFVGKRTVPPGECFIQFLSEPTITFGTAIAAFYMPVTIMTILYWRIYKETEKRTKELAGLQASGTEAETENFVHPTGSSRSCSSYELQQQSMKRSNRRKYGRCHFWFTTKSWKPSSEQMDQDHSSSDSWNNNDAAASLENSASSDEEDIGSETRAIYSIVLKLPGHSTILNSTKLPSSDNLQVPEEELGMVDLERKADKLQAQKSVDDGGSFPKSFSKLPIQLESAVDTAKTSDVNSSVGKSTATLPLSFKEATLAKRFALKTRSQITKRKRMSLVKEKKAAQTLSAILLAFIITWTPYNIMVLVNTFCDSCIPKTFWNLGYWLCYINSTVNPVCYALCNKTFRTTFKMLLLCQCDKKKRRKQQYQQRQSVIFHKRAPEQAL

Row | SMILES | EC50 [1] [nM] | Emax [1] [%] | EC50 [2] [nM] | Emax [2] [%] | EC50 [3] [nM] | Emax [3] [%] | EC50 [4] [nM] | Emax [4] [%]
1 | CCOC(=O)N1CCCC(N2CCC(OC)(C(=O)NCC3(C)CCC3)CC2)CC1 (centres unmarked) [Example 81, ethyl 4-(4-methoxy-4-{[(1-methylcyclobutyl)methyl]carbamoyl}piperidin-1-yl)azepane-1-carboxylate] | > 20000 | 0 | > 20000 | 7 | 141 | 110 | > 20000 | 9
2 | CCOC(=O)N1CCCC(N2CCC(C)(C(=O)NC3(C)CCC3)CC2)CC1 (centres unmarked) [Example 78, ethyl 4-{4-methyl-4-[(1-methylcyclobutyl)carbamoyl]piperidin-1-yl}azepane-1-carboxylate] | > 20000 | 5 | > 20000 | 0 | 42.7 | 115 | 417 | 51
3 | CCOC(=O)N1CCCC(N2CCC(C(=O)NC(C)(C)C(C)C)CC2)CC1 (centres unmarked) [Example 31, ethyl 4-(4-((2,3-dimethylbutan-2-yl)carbamoyl)piperidin-1-yl)azepane-1-carboxylate] | > 20000 | 0 | > 20000 | 13 | 31.6 | 122 | 123 | 90
4 | CCOC(=O)N1CCCC(N2CCC(C(=O)NCC3(C)CCC3)CC2)CC1 (centres unmarked) [Example 69, ethyl 4-(4-{[(1-methylcyclobutyl)methyl]carbamoyl}piperidin-1-yl)azepane-1-carboxylate] | > 20000 | 12 | > 20000 | 14 | 10.5 | 120 | 240 | 78
5 | CCOC(=O)N1CCCC(N2CCC(C(=O)NCC(C)(C)C)CC2)CC1 (centres unmarked) [Example 9, ethyl 4-(4-((2,2-dimethylpropyl)carbamoyl)piperidin-1-yl)azepane-1-carboxylate] | > 20000 | 6 | 13200 | 23 | 117 | 125 | 794 | 41
6 | CCOC(=O)N1CCCC(N2CCC(C(=O)NC3(C)CCCCC3)CC2)CC1 (centres unmarked) [Example 17, ethyl 4-(4-((1-methylcyclohexyl)carbamoyl)piperidin-1-yl)azepane-1-carboxylate] | > 20000 | 0 | > 20000 | 5 | 61.7 | 104 | 724 | 46
7 | CCOC(=O)N1CCCC(N2CCC(F)(C(=O)NC(C)(C)C3CC3)CC2)CC1 (centres unmarked) [Example 54, ethyl 4-(4-fluoro-4-((2-cyclopropylpropan-2-yl)carbamoyl)piperidin-1-yl)azepane-1-carboxylate] | > 20000 | 15 | > 20000 | 6 | 49 | 124 | 229 | 114

The remaining lines, values ahead:

Row | EC50 [1] [nM] | Emax [1] [%] | EC50 [2] [nM] | Emax [2] [%] | EC50 [3] [nM] | Emax [3] [%] | EC50 [4] [nM] | Emax [4] [%] | SMILES
8 | > 20000 | 14 | > 20000 | 13 | 87.1 | 102 | 794 | 87 | [2H]C([2H])([2H])C([2H])(C([2H])([2H])[2H])C([2H])([2H])NC(=O)C1CCN(C2CCCN(C(=O)OCC)CC2)CC1 (centres unmarked) [Example 75, ethyl 4-(4-{[2-(^2H3)methyl(^2H6)propyl]carbamoyl}piperidin-1-yl)azepane-1-carboxylate]
9 | > 20000 | 9 | > 20000 | 1 | 105 | 90 | 1070 | 63 | CCOC(=O)N1CCCC(N2CCC(F)(C(=O)NCC(C)(C)C)CC2)CC1 (centres unmarked) [Example 46, ethyl 4-(4-fluoro-4-((2,2-dimethylpropyl)carbamoyl)pipendin-1-yl)azepane-1-carboxylate]
10 | > 20000 | 41 | > 20000 | 12 | 39.8 | 97 | 257 | 88 | CCOC(=O)N1CCCC(N2CCC(F)(C(=O)NC(C)(C)CC)CC2)CC1 (centres unmarked) [Example 41, ethyl 4-(4-fluoro-4-((1,1-dimethylpropyl)carbamoyl)piperidin-1-yl)azepane-1-carboxylate]
11 | > 20000 | 3 | > 20000 | 33 | 57.5 | 132 | 224 | 104 | CCOC(=O)N1CCCC(N2CCC(C(=O)NC3CCCC3)CC2)CC1 (centres unmarked) [Example 30, ethyl 4-(4-(cyclopentylcarbamoyl)piperidin-1-yl)azepane-1-carboxylate]
12 | > 20000 | 12 | > 20000 | 0 | 275 | 94 | 2450 | 66 | CCOC(=O)N1CCC[C@@H](N2CCC(C(=O)NC3(C)CCC3)CC2)CC1 [Example 66, ethyl (4R)-4-{4-[(1-methylcyclobutyl)carbamoyl]piperidin-1-yl}azepane-1-carboxylate]
13 | > 20000 | 3 | > 20000 | 2 | 151 | 93 | 1660 | 55 | CCOC(=O)N1CCCC(N2CCC(C(=O)NCC(C)CC)CC2)CC1 (centres unmarked) [Example 8, ethyl 4-(4-((2-methylbutyl)carbamoyl)piperidin-1-yl)azepane-1-carboxylate]
14 | > 20000 | 5 | > 20000 | 9 | 107 | 104 | 3240 | 81 | CCOC(=O)N1CCC[C@@H](N2CCC(C(=O)NCC(C)C)CC2)CC1 [Example 64]
15 | > 20000 | 2 | > 20000 | 14 | 81.3 | 111 | 191 | 80 | CCOC(=O)N1CCCC(N2CCC(C(=O)NC(C)(C)C)CC2)CC1 (centres unmarked) [Example 7, ethyl 4-(4-((1,1-dimethylethyl)carbamoyl)piperidin-1-yl)azepane-1-carboxylate]
16 | > 20000 | 7 | > 20000 | 11 | 60.3 | 117 | 427 | 67 | CCOC(=O)N1CCCC(N2CCC(C(=O)NCC3CCC3)CC2)CC1 (centres unmarked) [Example 11, ethyl 4-(4-((cyclobutylmethyl)carbamoyl)piperidin-1-yl)azepane-1-carboxylate]
